Experimental data from paper PMC3983201, “6-Methoxyflavanones as Bitter Taste Receptor Blockers for hTAS2R39” (PLoS ONE, 2014).
Where two headings read alike, the source gives them in different places.

What was measured:
hTAS2R16 = molecular target: T1, hTAS2R16 (Homo sapiens, UniProt Q9NYV7); assay: Calcium assay of hTAS2R16 activation/inhibition (salicin as agonist); type: cell-based; details: for inhibition of salicin response on hTAS2R16: 10 mM salicin, simultaneous and stepwise addition
T1 construct: expressed in transfected cells; host or cells: induced versus non-induced cells
T1 sequence (Q9NYV7 1-291): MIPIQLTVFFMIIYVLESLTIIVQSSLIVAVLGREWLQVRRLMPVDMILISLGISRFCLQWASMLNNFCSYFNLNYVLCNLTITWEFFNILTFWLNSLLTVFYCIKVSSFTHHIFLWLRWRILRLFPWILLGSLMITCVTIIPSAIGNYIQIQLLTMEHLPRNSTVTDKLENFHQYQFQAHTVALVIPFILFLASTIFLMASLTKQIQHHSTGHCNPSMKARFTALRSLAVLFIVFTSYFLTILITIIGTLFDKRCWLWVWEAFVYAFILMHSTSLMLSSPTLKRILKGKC
Protocol: Cells were seeded into poly-L-lysine-coated (Sigma-Aldrich) 96-well plates (black wall, clear bottom, Greiner bio-one, Frickenhausen, Germany) at a density of 7*10^3 cells in 100 μL/well and cultured for 24 h. Transcription of the receptors was induced by adding 0.25 μg/mL doxycycline (Sigma-Aldrich). Cells were induced for 24 h and then loaded with the calcium-sensitive fluorescent dye Fluo-4-AM (2.5 μM, Invitrogen), which was dissolved in Tyrode's buffer containing 5% (v/v) tetracycline-free FBS (Lonza). One hour after loading, cells were washed with Tyrode's buffer and taken up in Tyrode's buffer. Stock solutions of test compounds were prepared in DMSO and diluted to the appropriate concentration in Tyrode's buffer, not exceeding a DMSO concentration of 1% (v/v).
Receptor activation or inhibition was measured via intracellular Ca^2+ release in a FlexStation II 384 or FlexStation III (Molecular Devices Corporation, Sunnyvale, CA, USA) by measuring fluorescence (excitation 485 nm/emission 520 nm) for either 90 s or 240 s at 37°C. Two methods of compound administration were applied: simultaneous and stepwise addition of potential antagonist and agonist. The first 17 s before compound addition were used for baseline determination. For the simultaneous method, agonist and potential antagonist were pre-mixed, administered after 17 s, and fluorescence was measured for in total 90 s. For the stepwise method, after 17 s, the potential antagonist was added, fluorescence was measured until 120 s, and after 120 s the agonist was added and measured for another 120 s, in total 240 s. […] Each experiment was performed at least in duplicate in separate experiments (as indicated for each figure).
Screening for hTAS2R39 inhibition by flavanones was performed with simultaneous application of agonist (200 μM ECG) and putative antagonist (250 μM flavanone). Inhibition was indicated when [drawing 1] . In case of indicated inhibition, flavanones were applied at different concentrations, in order to test for dose-dependent inhibition, at the EC80 concentration of the agonist. Another agonist of hTAS2R39, denatonium benzoate, was used in inhibition experiments at 1.7 mM (EC80). hTAS2R14 inhibition was tested with 640 μM ECG or 70 μM genistein as agonists, representing their respective EC80 concentrations. To investigate the specificity of flavanones for inhibition of hTAS2R39 and hTAS2R14, another bitter taste receptor, hTAS2R16 (not known to be activated by flavonoids), was used in inhibition experiments ( File S3 ) towards its agonist salicin.
SUPPORTING INFORMATION to the article “6-Methoxyflavanones as Bitter Taste Receptor Blockers for hTAS2R39” by Roland, WSU; Gouka, RJ; Gruppen, H; Driesse, M; van Buren, L; Smit, G; Vincken, J-P File S3 Investigation of identified inhibitors on hTAS2R16.
To investigate whether the hTAS2R39 inhibitors 6,3’-dimethoxyflavanone (3), 4’- fluoro-6-methoxyflavanone (6), and 6-methoxyflavanone (11) were able to inhibit a bitter receptor not known for flavonoid activation, hTAS2R16 was selected for inhibition experiments. Measuring dose-response curves of the hTAS2R16 agonist […]
Figure S3. Inhibition of response of 10 mM salicin (---) on hTAS2R16 (induced (●), non-induced (○)) by 4’-fluoro-6-methoxyflavanone (6) after simultaneous addition (A) and stepwise addition (B), by 6,3’-dimethoxyflavanone (3) after simultaneous addition (C) and stepwise addition (D), and by 6-methoxyflavanone (11) after simultaneous addition (E) and stepwise addition (F). […]

hTAS2R39 = molecular target: T2, hTAS2R39 (Homo sapiens, UniProt P59534); assay: Calcium assay of hTAS2R39 activation/inhibition in HEK293 T-Rex Flp-In cells; type: cell-based
T2 construct: first 45 amino acids of rat somatostatin receptor type 3 (sst3 membrane-targeting tag) (N); expressed in transfected cells; host or cells: HEK293 T-Rex Flp-In cells stably expressing Gα16-gust44; receptor in pcDNA5/FRT, induced with doxycycline
T2 sequence (P59534 1-338): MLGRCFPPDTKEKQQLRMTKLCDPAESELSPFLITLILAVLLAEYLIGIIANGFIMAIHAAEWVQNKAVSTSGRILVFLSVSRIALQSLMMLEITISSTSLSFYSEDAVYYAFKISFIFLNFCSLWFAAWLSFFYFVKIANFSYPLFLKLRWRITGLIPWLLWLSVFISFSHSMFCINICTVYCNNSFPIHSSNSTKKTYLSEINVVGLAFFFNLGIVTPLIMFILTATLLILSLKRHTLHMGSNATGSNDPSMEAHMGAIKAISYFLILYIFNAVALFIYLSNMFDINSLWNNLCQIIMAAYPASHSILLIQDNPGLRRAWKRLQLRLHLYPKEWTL

Row | Structure (SMILES) | inhibition of salicin response on hTAS2R16 (hTAS2R16) | reversibility of inhibition (washout experiment) (hTAS2R39; 200 μM ECG, 100 μM antagonist, washed with Tyrode's buffer, stimulated again) | maximal signal reduction (hTAS2R39; 200 μM ECG, simultaneous addition, reached at 63 μM) | receptor blocking (hTAS2R39; 200 μM ECG, stepwise addition (applied prior to ECG)) | maximal signal reduction (hTAS2R39; 1.7 mM denatonium benzoate, simultaneous addition, up to 63 μM) | receptor blocking (hTAS2R39; 1.7 mM denatonium benzoate, stepwise addition) | mechanism of antagonism on hTAS2R39 (hTAS2R39; ECG dose-response curves at various antagonist concentrations and wash-out experiments) | Threshold, Simultaneous (hTAS2R39; inhibition of hTAS2R39 response to 200 μM ECG, simultaneous addition, n.b. = no blocking) | IC50 (hTAS2R39; inhibition of hTAS2R39 response to 200 μM ECG, simultaneous addition, n.b. = no blocking, read-out: IC50, Simultaneous) | Threshold, Stepwise (hTAS2R39; inhibition of hTAS2R39 response to 200 μM ECG, stepwise addition) | IC50 (hTAS2R39; inhibition of hTAS2R39 response to 200 μM ECG, stepwise addition, read-out: IC50, Stepwise) | Threshold, Simultaneous (hTAS2R39; inhibition of hTAS2R39 response to 1.7 mM denatonium benzoate, simultaneous addition, n.b. = no blocking) | IC50 (hTAS2R39; inhibition of hTAS2R39 response to 1.7 mM denatonium benzoate, simultaneous addition, n.b. = no blocking, read-out: IC50, Simultaneous) | Threshold, Stepwise (hTAS2R39; inhibition of hTAS2R39 response to 1.7 mM denatonium benzoate, stepwise addition) | IC50 (hTAS2R39; inhibition of hTAS2R39 response to 1.7 mM denatonium benzoate, stepwise addition, read-out: IC50, Stepwise) | significance of the inhibitory effect at screening concentrations (hTAS2R39; simultaneous application of 200 μM ECG and 250 μM flavanone) | reduction of ECG response on hTAS2R39 (screening for inhibition) (hTAS2R39; simultaneous application of 200 μM ECG and 250 μM flavanone, inhibition when response ratio <1) | inhibitory effect of probenecid on hTAS2R16 assay (hTAS2R16; 0.5 mM probenecid in Tyrode's buffer and dye loading buffer, agonist salicin) | inhibition of hTAS2R39 by probenecid in the buffer (hTAS2R39; 0.5 mM probenecid in Tyrode's buffer, agonist ECG)
1 | COc1ccc2c(c1)C(=O)CC(c1ccc(F)cc1)O2 (centres unmarked) [Compound 6, 4′-Fluoro-6-methoxyflavanone] | no inhibition | reversible | 65% | 100% | 58% | 100% | reversible insurmountable antagonism | 8 µM | 32 ± 7 µM | 63 µM | 102 ± 9 µM | 8 µM | 22 ± 12 µM | 32 µM | 55 ± 3 µM | significant | showed reduction of ECG responses | – | –
2 | COc1ccc2c(c1)C(=O)CC(c1ccccc1)O2 (centres unmarked) [Compound 11, 6-Methoxyflavanone] | no inhibition | – | – | – | – | – | – | – | – | – | – | – | – | – | – | – | – | – | –
3 | CCCN(CCC)S(=O)(=O)c1ccc(C(=O)O)cc1 [probenecid, p-(dipropylsulfamyl)benzoic acid, reference compound] | – | – | – | – | – | – | – | – | – | – | – | – | – | – | – | – | – | no inhibitory effect | did not lead to inhibition
